Reference: patent US5457106A, “Pyridine derivatives, their production and use” (Takeda Chemical Industries, Ltd., priority 1991, dated 1995)
Structures can show the parent of a compound that is named as a salt.

Legend:
[1] = target: T1, cyclooxygenase (Rattus norvegicus, UniProt Q63921); experiment: Cyclooxygenase inhibitory activity (HHT formation from arachidonic acid in rat platelet-rich plasma); type: cell-based, rat (Jcl:wistar)
T1 construct: from tissue; host or cells: platelets in platelet-rich plasma from rat abdominal aorta blood (Jcl:wistar, male)
T1 sequence (Q63921 27-602): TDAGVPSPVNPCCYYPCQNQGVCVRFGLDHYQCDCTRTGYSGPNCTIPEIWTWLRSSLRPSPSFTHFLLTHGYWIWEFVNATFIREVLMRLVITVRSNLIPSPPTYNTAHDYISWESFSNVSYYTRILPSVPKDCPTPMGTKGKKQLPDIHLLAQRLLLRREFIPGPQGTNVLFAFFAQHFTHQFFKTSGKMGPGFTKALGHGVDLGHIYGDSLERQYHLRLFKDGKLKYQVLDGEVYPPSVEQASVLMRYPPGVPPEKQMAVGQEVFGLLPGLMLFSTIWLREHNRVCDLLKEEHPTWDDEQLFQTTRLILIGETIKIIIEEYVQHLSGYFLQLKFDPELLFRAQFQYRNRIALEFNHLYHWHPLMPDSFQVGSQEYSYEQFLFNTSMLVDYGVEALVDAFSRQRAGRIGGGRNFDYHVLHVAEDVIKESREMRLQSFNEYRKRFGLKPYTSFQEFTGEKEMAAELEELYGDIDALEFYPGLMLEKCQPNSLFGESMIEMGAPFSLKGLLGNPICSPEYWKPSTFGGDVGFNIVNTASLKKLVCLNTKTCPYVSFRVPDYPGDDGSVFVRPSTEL

[2] = system: Mouse phenylquinone writhing; experiment: Mouse phenylquinone writhing inhibitory activity; type: in vivo, mouse (Slc: ICR); details: 50 mg/kg, orally; for inhibition in vivo at 50 mg/kg: Mus musculus, po, 20 min, read-out: Inhibitory percentage (phenylquinone writhing)
Method: Mouse Phenylquinone Writhing Inhibitory Activity A Slc: ICR male mouse (4 weeks, weight 17 to 24 g) was used. A test compound suspended in 5% gum arabic solution was administered orally. After 30 minutes, 0.1 ml/10 g body weight of 0.02% phenylquinone solution in water (dissolved by the aid of 5% ethanol) was injected intraperitoneally, and writhing and stretching responses of individual animals were measured for 20 minutes [Siegmund, E., Cadmus, R. and Lu, G.; Proc. Soc. exp. Biol. Med. 95, (1957)].

[3] = system: ART (antigen-responding T-cell); experiment: In vitro ART (antigen-responding T-cell) proliferation test; type: cell-based, Lewis rat; details: for inhibition at 1 µM / inhibition at 10 µM: Rattus norvegicus, T-cell, read-out: % Inhibition of ART growth

CCCCCCCCCC(=O)NCCSc1ccncc1 [Example 7]
IC50 [1]: 4.4 µM

CCCCCCCCCC(=O)NCCCCSc1ccncc1 [Example 8]
IC50 [1]: 1.1 µM

CCCCCCCCCC(=O)NCCCCCSc1ccncc1 [Example 9]
IC50 [1]: 2.2 µM

CCCCCCCCCC(=O)NCCCCCCSc1ccncc1 [Example 10]
IC50 [1]: 2.2 µM

CCCC(=O)NCCCSc1ccncc1 [Example 14, 4-[3-(butyrylamino)propylthio]pyridine]
IC50 [1]: 13.2 µM

CCCCCC(=O)NCCCSc1ccncc1 [Example 15, 4-[3-(hexanoylamino)propylthio]pyridine]
IC50 [1]: 5.1 µM

CCCCCCCC(=O)NCCCSc1ccncc1 [Example 16]
IC50 [1]: 12.9 µM

CCCCCCCCCCCCCC(=O)NCCCSc1ccncc1 [Example 18, 4-[3-(myristoylamino)propylthio] pyridine]
IC50 [1]: 7 µM

O=C(NCCCSc1ccncc1)C1CCCCC1 [Example 23, 4-[3-(cyclohexanoylamino)propylthio]pyridine hydrochloride]
inhibition in vivo at 50 mg/kg [2]: 58%

O=C(NCCCSc1ccncc1)c1ccc(-c2ccccc2)cc1 [Example 26, 4-[3-(4-phenylbenzoylamino)propylthio]pyridine hydrochloride]
inhibition in vivo at 50 mg/kg [2]: 67% | IC50 [1]: 3.5 µM

O=C(NCCCSc1ccncc1)c1cccc2ccccc12 [Example 27, 4-[3-(1-naphthoylamino)propylthio]pyridine hydrochloride]
IC50 [1]: 5.4 µM

COc1ccc(C(=O)NCCCSc2ccncc2)cc1 [Example 30, 4-[3-(4-methoxybenzoylamino)propylthio]pyridine]
IC50 [1]: 6.6 µM

CCCCc1ccc(C(=O)NCCCSc2ccncc2)cc1 [Example 34, 4-[3-(4-n-butylbenzoylamino)propylthio]pyridine hydrochloride]
IC50 [1]: 2.9 µM | inhibition at 1 µM ([3]; 1 μM): 31% | inhibition at 10 µM ([3]; 10 μM): 47%

O=C(NCCCSc1ccncc1)c1ccccc1O [Example 36, 4-[3-(salicyloylamino)propylthio]pyridine hydrochloride]
IC50 [1]: 6 µM

O=C(CCCc1ccccc1)NCCCSc1ccncc1 [Example 39, 4-[3-(4-phenyl-n-butyrylamino)propylthio]pyridine]
IC50 [1]: 4.4 µM

O=C(/C=C/c1cnc2ccccc2c1)NCCCSc1ccncc1 [Example 44, 4-[3-(3-quinolineacryloylamino)propylthio]pyridine]
IC50 [1]: 3.3 µM

Cn1cccc1C(=O)NCCCSc1ccncc1 [Example 45, 4-[3-(1-methyl-2-pyrrolecarbonylamino)propylthio]pyridine]
IC50 [1]: 6.6 µM

O=C(NCCCSc1cccnc1)c1cccs1 [Example 48, 3-[3-(thenoylamino)propylthio]pyridine]
inhibition in vivo at 50 mg/kg [2]: 31%

CN(CCCSc1ccncc1)C(=O)c1cccs1 [Example 51, 4-[3-(N-methyl-2-thenoylamino)propylthio]pyridine]
inhibition in vivo at 50 mg/kg [2]: 72% | IC50 [1]: 8.9 µM

Cc1ccsc1C(=O)NCCCSc1ccncc1 [Example 60, 4-[3-(3-methylthenoylamino)propylthio]pyridine]
inhibition in vivo at 50 mg/kg [2]: 41% | IC50 [1]: 4.2 µM

O=C(NCCCOc1ccccn1)c1cccs1 [Example 61, 2-[3-(2-thenoylamino)propyloxy]pyridine]
IC50 [1]: 11 µM

O=C1c2ccccc2C(=O)N1COc1ccccn1 [Example 67, 2-(phthalimidomethyloxy)pyridine]
inhibition in vivo at 50 mg/kg [2]: 49%

CC(C)(C)C(=O)Nc1ncccc1SCN1C(=O)c2ccccc2C1=O [Example 74, 3-(phthalimidomethylthio)-2-pivaloylaminopyridine]
inhibition in vivo at 50 mg/kg [2]: 51% | inhibition at 1 µM ([3]; 1 μM): -3% | inhibition at 10 µM ([3]; 10 μM): 52%

CC(=O)N(CCCSc1ccncc1)Cc1ccccc1 [Example 75, 4-[3-(N-benzyl-N-acetylamino)propylthio]pyridine]
inhibition in vivo at 50 mg/kg [2]: 54% | inhibition at 1 µM ([3]; 1 μM): 5% | inhibition at 10 µM ([3]; 10 μM): 45%

CC(=O)N(CCCSc1ccncc1)Cc1ccccn1 [Example 79, 4-[3-(N-2-pyridylmethyl-N-acetylamino)propylthio]pyridine]
inhibition in vivo at 50 mg/kg [2]: 48%

Cl.Cl.O=C(c1ccccc1)N(CCCSc1ccncc1)Cc1ccccn1 [Example 82, 4-[3-(N-2-pyridylmethyl-N-benzoylamino)propylthio]pyridine dihydrochloride]
Inhibitory percentage (phenylquinone writhing) [2]: 47%

CC(C)(C)C(=O)NCCCOc1ccncc1 [Example 86, 4-(3-pivaloylaminopropyloxy) pyridine]
inhibition in vivo at 50 mg/kg [2]: 51%

O=C(NCCCOc1ccncc1)c1cccnc1 [Example 87, 4-(3-nicotinoylaminopropyloxy)pyridine]
inhibition in vivo at 50 mg/kg [2]: 47%

CC(=O)N(CCCSc1ccncc1)Cc1cccs1.Cl [Example 91, 4-[3-(N-(2-thienylmethyl)-N-acetylamino)-propylthio]pyridine hydrochloride]
Inhibitory percentage (phenylquinone writhing) [2]: 52% | % Inhibition of ART growth ([3]; 1 μM): 44% | % Inhibition of ART growth ([3]; 10 μM): 42%

O=C(c1ccccc1)N(CCCSc1ccncc1)Cc1cccs1 [Example 92, 4-[3-(N-(2-thienylmethyl)-N-benzoylamino)propylthio]pyridine]
Inhibitory percentage (phenylquinone writhing) [2]: 74%

O=C1[C@H]2CC=CC[C@H]2C(=O)N1CSc1ccncc1 [Example 96, 4-[cis-(1,2,3,6-tetrahydrophthalimido)methylthio]pyridine]
IC50 [1]: 13 µM

O=C1c2ccccc2C(O)N1CCCOc1ccncc1 (stereo not drawn) [Example 99, 4-[3-(3-hydroxyisoindolin-1-on-2-yl)propyloxy]pyridine]
IC50 [1]: 12 µM

O=C(NCCCCSc1ccncc1)c1ccccc1CO [Example 106, 4-[4-(2-hydroxymethylbenzoyl)aminobutylthio]pyridine]
IC50 [1]: 3.7 µM

O=C1c2ccccc2C(O)N1CCCCSc1ccncc1 (stereo not drawn) [Example 107, 4-[4-(3-hydroxyisoindolin-1-on-2-yl)butylthio]pyridine]
IC50 [1]: 4.3 µM

O=C(NCCCOc1ccncc1)c1cc2ccccc2s1 [Example 115, 4-[3-(thianaphthene-2-carbonyl)aminopropyloxy]pyridine hydrochloride]
inhibition at 1 µM ([3]; 1 μM): 18% | inhibition at 10 µM ([3]; 10 μM): 53%

O=C(c1ccccc1)N(CCOc1ccncc1)Cc1ccccc1 [Example 117, 4-[2-(N-benzyl-N-benzoyl)aminoethyloxy]pyridine]
% Inhibition of ART growth ([3]; 1 μM): 3% | inhibition at 10 µM ([3]; 10 μM): 39%

O=C(N(CCSc1ccncc1)Cc1ccccc1)C(F)(F)F [Example 119, 4-[2-(N-benzyl-N-trifluoroacetylamino)ethylthio]pyridine]
IC50 [1]: 4.6 µM | inhibition at 1 µM ([3]; 1 μM): 13% | inhibition at 10 µM ([3]; 10 μM): 43%

O=C(c1ccccc1)N(CCSc1ccncc1)Cc1ccccc1 [Example 120, 4-[2-(N-benzyl-N-benzoylamino)ethylthio]pyridine]
inhibition at 1 µM ([3]; 1 μM): 16% | inhibition at 10 µM ([3]; 10 μM): 74%

O=C(NCCSc1ccncc1)c1cccs1 [Example 122, 4-(2-thenoylaminoethylthio)pyridine]
IC50 [1]: 3.8 µM

CC1(C)NC(=O)N(CCCCSc2ccncc2)C1=O [Example 140, 5,5-dimethyl-3-[4-(4-pyridylthio)butyl]hydantoin]
inhibition at 1 µM ([3]; 1 μM): -9% | inhibition at 10 µM ([3]; 10 μM): -25%

O=C(NCCCCOc1ccncc1)c1ccccc1CO [Example 148, 4-[4-(2-hydroxymethylbenzoyl)aminobutyloxy]pyridine]
IC50 [1]: 3.1 µM

COc1ccc(C=C2SC(=O)N(CCCCSc3ccncc3)C2=O)cc1 [Example 152, 4-[4-[5-(4-methoxybenzylidene)-2,4-thiazolidinedione]butylthio]pyridine]
inhibition at 1 µM ([3]; 1 μM): -20% | inhibition at 10 µM ([3]; 10 μM): 68%

O=C1SC(=Cc2ccccc2)C(=O)N1CCCSc1ccncc1 [Example 154, 4-[3-(5-benzylidene-2,4-thiazolidinedione)propylthio]pyridine]
IC50 [1]: 6 µM | inhibition at 1 µM ([3]; 1 μM): 16% | inhibition at 10 µM ([3]; 10 μM): 27%

O=C1CSC(=O)N1CCCCSc1ccncc1 [Example 160, 4-[4-(2,4-thiazolidinedione)butylthio]pyridine]
inhibition at 1 µM ([3]; 1 μM): -14% | inhibition at 10 µM ([3]; 10 μM): 33%

O=C1SC(=Cc2ccccc2)C(=O)N1CCCCSc1ccccn1 [Example 164, 2-[4-(5-benzylidene-2,4-thiazolidinedione)butylthio]pyridine]
inhibition at 1 µM ([3]; 1 μM): 3% | inhibition at 10 µM ([3]; 10 μM): -54%

O=C1c2ccccc2S(=O)(=O)N1CCCCSc1ccncc1 [Example 166, 4-(4-saccharinbutylthio)pyridine]
IC50 [1]: 12 µM

O=C(NCCSc1ccncc1)c1ccccc1O [Example 168, 4-[2-(2-hydroxybenzoyl)aminoethylthio]pyridine]
IC50 [1]: 3.6 µM
